Laboratory results as given in patent US6440989B2, “Phenyl-substituted tricyclic inhibitors of farnesyl-protein transferase” (Schering Corporation, priority 1997, dated 2002).

Each compound was assayed against T1, partially purified rat brain farnesyl protein transferase (FPT) (Rattus norvegicus, UniProt Q02293+Q04631) (assay: In vitro enzyme assay: inhibition of Ras-CVLS farnesylation by farnesyl protein transferase).
T1 construct: partially purified rat brain farnesyl protein transferase (FPT); from tissue; host or cells: rat brain
Type: biochemical
Experimental: 1. In vitro enzyme assays: FPT IC50 (inhibition of farnesyl protein transferase, in vitro enzyme assay) are determined by the methods disclosed in WO/10515 or WO 95110516.

SMILES | IC50 [nM]
COc1cc(C)c(Cl)c2c1C(=C1CCN(C(=O)Cc3cc[n+]([O-])cc3)CC1)c1ncccc1CC2 [Example 5, (+,−)-4-(7-Chloro-5,6-dihydro-8-methyl-10-methoxy-11H-benzo[5,6]cyclohepta[1,2-b]pyridin-11-ylidene)-1-(4-pyridinylacetyl)piperidine N1-oxide] | > 200
COc1ccc2c(c1)CCc1cc(Br)cnc1C2N1CCN(C(=O)Cc2cc[n+]([O-])cc2)CC1 (racemic) [Example 17, (+,−)-1-(3-Bromo-6,11-dihydro-8-methoxy-5H-benzo[5,6]cyclohepta[1 ,2-b]pyridin-11-yl)-4-(4-pyridinylacetyl)piperazine N4-oxide] | 290
Cc1cc(O)c2c(c1)CCc1cc(Br)cnc1C2C1CCN(C(=O)Cc2cc[n+]([O-])cc2)CC1 (racemic) [Example 9, (+,−)-4-(3-Bromo-10-hydroxy-8-methyl-5,6-dihydro-11H-benzo[5,6]cyclohepta[1,2-b]pyridin-11-yl)-1-(4-pyridinylacetyl)piperidine N1-oxide] | 120
Cc1ccc(C)c2c1CCc1cc(Br)cnc1C2N1CCN(C(=O)Cc2cc[n+]([O-])cc2)CC1 (racemic) [Example 15, (+,−)-1-(3-Bromo-7,10-dimethyl-6,11-dihydro-5H-benzo[5,6]cyclohepta[1,2-b]pyridin-11-yl)-4-(4-pyridinylacetyl)piperazine N4-oxide] | 130
C=Cc1cnc2c(c1)CCc1cc(C)cc(OC)c1C2C1CCN(S(C)(=O)=O)CC1 (stereo not shown) [Example 28, 4-(3-Ethenyl-6,11-dihydro-10-methoxy-8-methyl-5H-benzo[5,6]cyclohepta[1,2-b]pyridin-11-yl)-1-(methylsulfonyl)piperidine] | 132
COc1cc(C)cc2c1C(C1CCN(C(=O)Cc3cc[n+]([O-])cc3)CC1)c1ncccc1CC2 (racemic) [Example 4, (+,−)-4-(6,11-dihydro-10-methoxy-8-methyl-5H-benzo[5,6]cyclohepta[1,2-b]pyridin-11-yl)-1-(4-pyridinylacetyl)piperidine N-1 oxide] | 140
Cc1cccc2c1CCc1cc(Br)cnc1C2N1CCN(C(=O)Cc2cc[n+]([O-])cc2)CC1 (racemic) [Example 14, (+,−)-1-(3-Bromo-7-methyl-6,11-dihydro-5H-benzo[5,6]cyclohepta[1,2-b]pyridin-11-yl)-4-(4-pyridinylacetyl)piperazine N4-oxide] | 110
COc1cc(C)cc2c1C(C1CCN(C(=O)Cc3cc[n+]([O-])cc3)CC1)c1ncc(C3CC3)cc1CC2 (racemic) [Example 32] | > 200
CCc1cnc2c(c1)CCc1cc(C)cc(OC)c1C2C1CCN(C(=O)Cc2cc[n+]([O-])cc2)CC1 (stereo not shown) [Example 29, 4-(3-Ethyl-6,11-dihydro-10-methoxy-8-methyl-5H-5 benzo[5,6]cyclohepta[1,2-b]pyridin-11-yl)-1-(4-pyridinylacetyl)piperidine, N1-Oxide] | 74
COc1cc(C)cc2c1C(C1CCN(C(=O)Cc3cc[n+]([O-])cc3)CC1)c1ncc(Br)cc1CC2 (single isomer, unassigned; (-)) [Example 25, (−)-4-(3-Bromo-10-methoxy-8-methyl-6,11-dihydro-5H-benzo[5,6]cyclohepta[1,2-b]pyridin-11-yl)-4-(4-pyridinylacetyl)piperidine N1-oxide, (−) enantiomer] | 220
COc1cc(C)cc2c1C(N1CCN(C(=O)Cc3cc[n+]([O-])cc3)CC1)c1ncc(Br)cc1CC2 (single isomer, unassigned; (+)) [Example 20, (+)-1-(3-Bromo-10-methoxy-8-methyl-6,11-dihydro-5H-benzo[5,6]cyclohepta[1,2-b]pyridin-11-yl)-4-(4-pyridinylacetyl)piperazine N4-oxide, (+) enantiomer] | > 180
COc1cc(C)cc2c1C(C1CCN(C(=O)Cc3cc[n+]([O-])cc3)CC1)c1ncc(C(C)(C)O)cc1CC2 (racemic) [Example 23, (+,−)-4-[6,11-dihydro-3-(1-hydroxy-1-methylethyl)-10-methoxy-8-methyl-5H-benzo[5,6]cyclohepta[1,2-b]pyridin-11-yl]-1-(4-pyridinylacetyl)piperidine N1-oxide] | > 200

Now those with a lower IC50, led by results:

IC50 [nM] | SMILES
67 | COc1cc2c(c(OC)c1)C(N1CCN(C(=O)Cc3cc[n+]([O-])cc3)CC1)c1ncc(Br)cc1CC2 (stereo not shown) [Example 1, 1-(3-Bromo-6,11-dihydro-8,10-dimethoxy-5H-benzo[5,6]cyclohepta[1,2-b]pyridin-11-yl)-4-(4-pyridinylacetyl)piperazine N4-oxide]
45 | Cc1cc(O)c2c(c1)CCc1cc(Br)cnc1C2=C1CCN(C(=O)Cc2cc[n+]([O-])cc2)CC1 [Example 6, (+,−)-4-(3-Bromo-10-hydroxy-8-methyl--5,6-dihydro-11H-benzo[5,6]cyclohepta[1,2-b]pyridin-11-ylidene)-1-(4-pyridinylacetyl)piperidine N1-oxide]
16 | COc1cc(C)cc2c1C(N1CCN(C(=O)Cc3cc[n+]([O-])cc3)CC1)c1ncc(Br)cc1CC2 (racemic) [Example 10, (+,−)-1-(3-Bromo-10-methoxy-8-methyl-6,11-dihydro-5H-benzo[5,6]cyclohepta[1,2-b]pyridin-1 1-yl)-4-(4-pyridinylacetyl)piperazine N4-oxide]
60 | COc1cc(C)cc2c1C(=C1CCN(C(=O)Cc3cc[n+]([O-])cc3)CC1)c1ncc(C)cc1CC2 [Example 7, 4-(5,6-dihydro-10-methoxy-3,8-dimethyl-11H-benzo[5,6]cyclohepta[1,2-b]pyridin-11-ylidene)-1-(4-pyridinylacetyl)piperidine N1-oxide]
1.2 | Cc1cc(Br)c2c(c1)CCc1cc(Br)cnc1C2C1CCN(C(=O)Cc2cc[n+]([O-])cc2)CC1 (single isomer, unassigned; (+)) [Example 33, (+) 4-(3-Bromo-6,11-dihydro-10-bromo-8-methyl-5H-benzo[5,6]cyclohepta[1,2-b]pyridin-11-yl)-1-(4-pyridinylacetyl)piperidine N1 -Oxide]
30 | COc1cc(C)cc2c1C(=C1CCN(C(=O)Cc3cc[n+]([O-])cc3)CC1)c1ncc(Br)cc1CC2 [Example 8, (+,−)-4-(3-bromo-10-methoxy-8-methyl-5,6-dihydro-11H-benzo[5,6]cyclohepta[1,2-b]pyridin-11-ylidene)-1-(4-pyridinylacetyl)piperidine N1-oxide]
3.2 | COc1cc(C)cc2c1C(C1CCN(C(=O)Cc3cc[n+]([O-])cc3)CC1)c1ncc(Br)cc1CC2 (racemic) [Example 3, (+,−)-4-(3-Bromo-10-methoxy-8-methyl-6,11-dihydro-5H-benzo[5,6]cyclohepta[1,2-b]pyridin-11-yl)-1-(4-pyridinylacetyl)piperidine N1-oxide]
3.6 | COc1cc(C)cc2c1C(C1CCN(C(=O)Cc3cc[n+]([O-])cc3)CC1)c1ncc(Br)cc1CC2 (single isomer, unassigned; (+)) [Example 24, (+)-4-(3-Bromo-10-methoxy-8-methyl-6,11-dihydro-5H-benzo[5,6]cyclohepta[1,2-b]pyridin-11-yl)-4-(4-pyridinylacetyl)piperidine N1-oxide, (+) enantiomer]
10.8 | Cc1cc(Br)c2c(c1)CCc1cc(Br)cnc1C2(O)C1CCN(C(=O)Cc2cc[n+]([O-])cc2)CC1 (single isomer, unassigned; (+)) [Example 35, (+) 4-(3-Bromo-6,11-dihydro-11-hydroxy-10-bromo-8-methyl-5H-benzo[5,6]cyclohepta[1,2-b]pyridin-11-yl)-1-(4-pyridinylacetyl)piperidine N1-Oxide]
64 | Cc1ccc2c(c1)CCc1cc(Br)cnc1C2N1CCN(C(=O)Cc2cc[n+]([O-])cc2)CC1 (racemic) [Example 16, (+,−)-1-(3-Bromo-8-methyl-6,11-dihydro-5H-benzo[5,6]cyclohepta[1,2-b]pyridin-11-yl)-4-(4-pyridinylacetyl)piperazine N4-oxide]
34 | COc1cc(C)cc2c1C(C1CCN(C(=O)Cc3cc[n+]([O-])cc3)CC1)c1ncc(C)cc1CC2 (stereo not shown) [Example 2, 4-(6,11-dihydro-10-methoxy-3,8-dimethyl-5H-benzo[5,6]cyclohepta[1,2-b]pyridin-11-yl)-1-(4-pyridinylacetyl)piperidine N1-15 oxide]
4.8 | Cc1cc(Br)c2c(c1)CCc1cc(Br)cnc1C2N1CCN(C(=O)Cc2cc[n+]([O-])cc2)CC1 (racemic) [Example 21]
4.2 | COc1cc(C)cc2c1C(N1CCN(C(=O)Cc3cc[n+]([O-])cc3)CC1)c1ncc(Br)cc1CC2 (single isomer, unassigned; (-)) [Example 19, (−)-1-(3-Bromo-10-methoxy-8-methyl-6,11-dihydro-5H-benzo[5,6]cyclohepta[1,2-b]pyridin-11-yl)-4-(4-pyridinylacetyl)piperazine N4-oxide, (−) enantiomer]
5.4 | Cc1cc(Br)c2c(c1)CCc1cc(Br)cnc1C2(O)C1CCN(C(=O)Cc2cc[n+]([O-])cc2)CC1 (single isomer, unassigned; (-)) [Example 36, (−) 4-(3-Bromo-6,11-dihydro-11-hydroxy-10-bromo-8-methyl-5H-benzo[5,6]cyclohepta[1,2-b]pyridin-11-yl)-1-(4-pyridinylacetyl)piperidine N1-Oxide]
43 | Cc1cc(C)c2c(c1)CCc1cc(Br)cnc1C2N1CCN(C(=O)Cc2cc[n+]([O-])cc2)CC1 (racemic) [Example 18, (+,−)-1-(3-Bromo-6,11-dihydro-8,10-dimethyl-5H-benzo[5,6]cyclohepta[1,2-b]pyridin-11-yl)-4-(4-pyridinylacetyl)piperazine N4-oxide]
9.9 | Cc1cc(Br)cc2c1C(N1CCN(C(=O)Cc3cc[n+]([O-])cc3)CC1)c1ncc(Br)cc1CC2 (racemic) [Example 22, (+,−)-1-(3,8-Dibromo-6,11-dihydro-10-methyl-5H-benzo[5,6]cyclohepta[1,2-b]pyridin-11-yl)-4-(4-pyridinylacetyl)piperazine N4-oxide]
